Data from ChEMBL document CHEMBL4196200 (J Med Chem, 2018).

Legend:
[1] = molecular target: T1, Vasopressin V1a receptor (Homo sapiens, UniProt P37288); assay: Displacement of [3H]-AVP from human V1A receptor expressed in CHO cell membranes by radioligand binding assay
Target sequence in this assay (P37288 whole entry): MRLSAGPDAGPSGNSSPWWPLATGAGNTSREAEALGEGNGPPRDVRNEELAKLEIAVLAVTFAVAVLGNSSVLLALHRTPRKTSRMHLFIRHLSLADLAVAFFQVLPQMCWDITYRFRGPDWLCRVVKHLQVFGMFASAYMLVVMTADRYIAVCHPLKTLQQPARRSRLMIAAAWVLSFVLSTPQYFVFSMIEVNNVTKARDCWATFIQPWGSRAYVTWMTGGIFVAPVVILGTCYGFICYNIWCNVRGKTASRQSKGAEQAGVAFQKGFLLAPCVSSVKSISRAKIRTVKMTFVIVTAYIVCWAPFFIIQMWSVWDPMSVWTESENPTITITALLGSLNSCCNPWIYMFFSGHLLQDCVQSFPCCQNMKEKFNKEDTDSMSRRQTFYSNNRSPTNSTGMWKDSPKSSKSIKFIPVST

[2] = molecular target: T2, Vasopressin V2 receptor (Homo sapiens, UniProt P30518); assay: Antagonist activity at human V2 receptor expressed in CHO cells assessed as inhibition of AVP-induced cAMP accumulation by cAMP dynamic 2 assay; assay type: functional, cell-based
[3] = molecular target: T3, Oxytocin receptor (Homo sapiens, UniProt P30559); assay: Displacement of [3H]-AVP from human OXR receptor expressed in CHO cell membranes by radioligand binding assay
T3 sequence (P30559 whole entry): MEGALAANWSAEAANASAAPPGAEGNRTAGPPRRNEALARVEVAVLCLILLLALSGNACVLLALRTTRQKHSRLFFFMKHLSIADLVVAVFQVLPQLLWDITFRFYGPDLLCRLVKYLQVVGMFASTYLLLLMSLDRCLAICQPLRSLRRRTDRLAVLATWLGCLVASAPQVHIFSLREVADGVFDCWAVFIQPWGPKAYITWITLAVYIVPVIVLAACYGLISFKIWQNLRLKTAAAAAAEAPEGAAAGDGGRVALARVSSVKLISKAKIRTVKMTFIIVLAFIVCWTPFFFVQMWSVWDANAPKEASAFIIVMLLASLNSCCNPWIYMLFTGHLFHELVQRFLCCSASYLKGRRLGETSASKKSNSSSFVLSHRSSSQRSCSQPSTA

[4] = molecular target: T1, Vasopressin V1a receptor; assay: Agonist activity at human V1A receptor expressed in CHO cells assessed as increase in myo-inositol 1-phosphate accumulation at 1 uM by IP-One assay relative to AVP; assay type: functional, cell-based
Target sequence in this assay (P37288 whole entry, looked up): as the sequence (P37288 whole entry) above

[5] = molecular target: T2, Vasopressin V2 receptor; assay: Displacement of [3H]-AVP from human V2 receptor expressed in CHO cell membranes by radioligand binding assay
[6] = molecular target: T4, Oxytocin receptor (Homo sapiens) (UniProt P30559); assay: Agonist activity at human OTR receptor expressed in CHO cells assessed as increase in myo-inositol 1-phosphate accumulation at 1 uM by IP-One assay relative to OT; assay type: functional, cell-based
T4 sequence (whole entry): T3 sequence (P30559 whole entry)

[7] = molecular target: T4, Oxytocin receptor (Homo sapiens); assay: Antagonist activity at human OTR receptor expressed in CHO cells assessed as inhibition of OT-induced myo-inositol 1-phosphate accumulation by IP-One assay; assay type: functional, cell-based
[8] = molecular target: T1, Vasopressin V1a receptor; assay: Antagonist activity at human V1A receptor expressed in CHO cells assessed as inhibition of AVP-induced myo-inositol 1-phosphate accumulation by IP-One assay; assay type: functional, cell-based
Target sequence in this assay (P37288 whole entry, looked up): as the sequence (P37288 whole entry) above

[9] = molecular target: T2, Vasopressin V2 receptor; assay: Agonist activity at human V2 receptor expressed in CHO cells assessed as increase in cAMP accumulation by cAMP dynamic 2 assay; assay type: functional, cell-based
[10] = species on record: Homo sapiens; assay: Selectivity for human OTR receptor over human V2 receptor
[11] = species on record: Homo sapiens; assay: Selectivity for human V1a receptor over human V2 receptor
[12] = molecular target: T1, Vasopressin V1a receptor; assay: Antagonist activity at human V1A receptor expressed in HEK cells assessed as inhibition of AVP-induced intracellular calcium flux incubated for 45 mins by Indo1-AM dye based fluorescence assay relative to AVP; assay type: functional, cell-based
Target sequence in this assay (P37288 whole entry): as the sequence (P37288 whole entry) above

[13] = molecular target: T3, Oxytocin receptor; assay: Displacement of DY647 from SNAP-tagged OTR receptor (unknown origin) expressed in HEK293 cells by TR-FRET assay; assay type: cell-based
[14] = molecular target: T4, Oxytocin receptor (Homo sapiens); assay: Agonist activity at human OTR expressed in HEK cells assessed as increase in intracellular calcium flux at 1 uM incubated for 45 mins by Indo1-AM dye based fluorescence assay relative to OT; assay type: functional, cell-based
[15] = molecular target: T2, Vasopressin V2 receptor; assay: Displacement of DY647 from SNAP-tagged V2 receptor (unknown origin) expressed in HEK293 cells by TR-FRET assay; assay type: cell-based
[16] = molecular target: T1, Vasopressin V1a receptor; assay: Displacement of DY647 from SNAP-tagged V1A receptor (unknown origin) expressed in HEK293 cells by TR-FRET assay; assay type: cell-based
Target sequence in this assay (P37288 whole entry): as the sequence (P37288 whole entry) above

[17] = molecular target: T1, Vasopressin V1a receptor; assay: Agonist activity at human V1A receptor expressed in HEK cells assessed as increase in intracellular calcium flux at 1 uM incubated for 45 mins by Indo1-AM dye based fluorescence assay relative to AVP; assay type: functional, cell-based
Target sequence in this assay (P37288 whole entry, looked up): as the sequence (P37288 whole entry) above

[18] = molecular target: T3, Oxytocin receptor; assay: Antagonist activity at human OTR expressed in HEK cells assessed as inhibition of OT-induced intracellular calcium flux incubated for 45 mins by Indo1-AM dye based fluorescence assay; assay type: functional, cell-based
[19] = molecular target: T1, Vasopressin V1a receptor; assay: Antagonist activity at human V1A receptor expressed in CHO cells assessed as inhibition of AVP-induced myo-inositol 1-phosphate accumulation at 1 uM by IP-One assay relative to AVP; assay type: functional, cell-based
Target sequence in this assay (P37288 whole entry, looked up): as the sequence (P37288 whole entry) above

[20] = molecular target: T4, Oxytocin receptor (Homo sapiens); assay: Antagonist activity at human OTR receptor expressed in CHO cells assessed as inhibition of OT-induced myo-inositol 1-phosphate accumulation at 1 uM by IP-One assay relative to OT; assay type: functional, cell-based
[21] = molecular target: T4, Oxytocin receptor (Homo sapiens); assay: Agonist activity at human OTR receptor expressed in HEK293FT cells incubated for 30 mins by beta-arrestin recruitment assay relative to OT; assay type: functional, cell-based
[22] = molecular target: T5, Oxytocin receptor (Mus musculus) (UniProt P97926); assay: Agonist activity at mouse OTR receptor expressed in HEK293FT cells assessed as stimulation of calcium release by Aequorin based assay relative to OT; assay type: functional, cell-based
T5 sequence (whole entry): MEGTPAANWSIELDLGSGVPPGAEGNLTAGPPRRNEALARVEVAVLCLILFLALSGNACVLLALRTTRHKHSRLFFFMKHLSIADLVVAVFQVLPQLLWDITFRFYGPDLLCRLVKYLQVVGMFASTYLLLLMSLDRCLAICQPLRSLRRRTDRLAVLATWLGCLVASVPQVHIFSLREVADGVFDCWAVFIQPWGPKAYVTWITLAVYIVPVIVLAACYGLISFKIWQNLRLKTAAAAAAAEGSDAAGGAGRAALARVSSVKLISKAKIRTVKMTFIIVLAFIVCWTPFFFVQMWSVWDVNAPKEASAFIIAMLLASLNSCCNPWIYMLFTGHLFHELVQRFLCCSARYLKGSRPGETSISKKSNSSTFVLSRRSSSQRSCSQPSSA

[23] = molecular target: T4, Oxytocin receptor (Homo sapiens); assay: Agonist activity at human OTR receptor expressed in HEK293FT cells assessed as stimulation of calcium release by Aequorin based assay relative to OT; assay type: functional, cell-based
[24] = molecular target: T1, Vasopressin V1a receptor
Target sequence in this assay (P37288 whole entry): as the sequence (P37288 whole entry) above
Description: Agonist activity at human V1a receptor expressed in HEK293FT cells incubated for 30 mins by beta-arrestin recruitment assay

[25] = molecular target: T4, Oxytocin receptor (Homo sapiens); assay: Antagonist activity at human OTR expressed in HEK cells assessed as inhibition of OT-induced intracellular calcium flux at 1 uM incubated for 45 mins by Indo1-AM dye based fluorescence assay relative to OT; assay type: functional, cell-based
[26] = molecular target: T3, Oxytocin receptor; assay: Agonist activity at human OTR expressed in HEK cells assessed as increase in intracellular calcium flux incubated for 45 mins by Indo1-AM dye based fluorescence assay; assay type: functional, cell-based
[27] = molecular target: T4, Oxytocin receptor (Homo sapiens); assay: Agonist activity at human OTR expressed in HEK cells assessed as increase in intracellular calcium flux incubated for 45 mins by Indo1-AM dye based fluorescence assay relative to OT; assay type: functional, cell-based

T2 sequence (P30518 whole entry): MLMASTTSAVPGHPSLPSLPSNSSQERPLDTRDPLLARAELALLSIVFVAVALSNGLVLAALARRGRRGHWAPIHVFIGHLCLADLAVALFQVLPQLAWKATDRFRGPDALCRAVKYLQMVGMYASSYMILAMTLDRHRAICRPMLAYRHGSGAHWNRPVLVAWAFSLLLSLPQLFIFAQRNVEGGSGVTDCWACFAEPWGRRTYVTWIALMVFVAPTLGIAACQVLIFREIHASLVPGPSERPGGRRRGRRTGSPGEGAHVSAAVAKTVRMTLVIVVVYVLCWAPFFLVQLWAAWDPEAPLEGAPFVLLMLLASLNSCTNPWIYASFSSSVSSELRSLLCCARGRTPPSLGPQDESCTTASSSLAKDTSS

| Compound | Ki [1] | Ki [3] | Emax [4] | Ki [5] | Emax [6] | Kinact [7] | Kact [9] | Selectivity ratio [10] | Selectivity ratio [11] | other results |
| --- | --- | --- | --- | --- | --- | --- | --- | --- | --- | --- |
| O=C(c1ccc(-c2ccccc2)cc1)N1CCCCc2ccccc21 | 2.28 nM | 10.4 nM | < 10% | 78 nM | < 10% | 42 nM | – | – | – | Kinact [2]: 132 nM |
| Cc1ccn(-c2ccc(C(=O)N3CCCCc4ccccc43)cc2)n1 | 34 nM | 84 nM | < 10% | 282 nM | < 10% | 112 nM | 13 nM | 0.3 | 0.12 | Kinact [8]: 48 nM |
| COC(=O)CNC(=O)NCc1ccc(C(=O)N2Cc3cnn(C)c3Nc3ccccc32)cc1C | – | – | – | – | – | – | – | – | – | IC50 [12]: 110 nM; Ki [13]: 385 nM; Emax [14]: 5 to 10%; Ki [15]: > 1000 nM; Ki [16]: > 1000 nM; Emax [17]: 5 to 10%; IC50 [18]: > 1000 nM |
| CN(C)c1ccc(C(=O)N2CCCCc3ccccc32)cc1 | 82 nM | > 1000 nM | < 10% | 468 nM | < 10% | 186 nM | 80 nM | – | – | Kinact [8]: 81 nM |
| Cc1ccn(-c2ccc(C(=O)N3CCCC(N(C)C)c4ccccc43)c(Cl)c2)n1 (centres undefined) | < 10 nM | > 1000 nM | < 10% | 331 nM | – | – | – | > 3 | > 30 | Kinact [2]: 126 nM; inhibition [19]: < 10%; inhibition [20]: < 10% |
| Cc1ccn(-c2ccc(C(=O)N3CCCC(O)c4ccccc43)c(Cl)c2)n1 (centres undefined) | < 10 nM | 800 nM | < 10% | 100 nM | – | – | 28 nM | 8 | > 100 | inhibition [19]: 26%; inhibition [20]: 28% |
| CC[C@H](C)[C@@H]1NC(=O)[C@H](Cc2ccc(O)cc2)NC(=O)[C@@H](N)CSSC[C@@H](C(=O)N2CCC[C@H]2C(=O)N[C@@H](CC(C)C)C(=O)NCC(N)=O)NC(=O)[C@H](CC(N)=O)NC(=O)[C@H](CCC(N)=O)NC1=O [OXYTOCIN] | – | – | – | – | – | – | – | – | – | Emax [21]: 100%; Emax [22]: 100%; Emax [23]: 100%; IC50 [24]: Not Active |
| Cc1cc(C(=O)N2Cc3cnn(C)c3Nc3ccccc32)ccc1CNC(=O)NCC(=O)N(C)C | – | – | – | – | – | – | – | – | – | IC50 [12]: 50 nM; Ki [13]: 417 nM; Emax [14]: 5 to 10%; Ki [15]: > 1000 nM; Ki [16]: > 1000 nM; Emax [17]: 5 to 10%; IC50 [18]: 775 nM |
| Cc1cc(C(=O)N2Cc3cnn(C)c3Nc3ccccc32)ccc1CNC(=O)NCC(=S)N(C)C | – | – | – | – | – | – | – | – | – | IC50 [12]: 9 nM; Ki [13]: 61 nM; Emax [14]: 5 to 10%; Ki [15]: > 1000 nM; Ki [16]: 82 nM; Emax [17]: 5 to 10%; IC50 [18]: 600 nM |
| Cc1ccn(-c2ccc(C(=O)N3CCCC(O)c4ccccc43)cc2)n1 (centres undefined) | 164 nM | 686 nM | < 10% | 1150 nM | – | – | – | 0.6 | 0.14 | inhibition [19]: 69%; inhibition [20]: 45% |
| CCCc1ccc(C(=O)N2CCCCc3ccccc32)cc1 | 63 nM | 104 nM | < 10% | 121 nM | < 10% | 172 nM | 92 nM | – | – | Kinact [8]: 184 nM |
| Cc1cc(C(=O)N2Cc3cnn(C)c3Nc3ccccc32)ccc1CNC(=O)N1CCC[C@H]1C(=O)N(C)C | – | – | – | – | – | – | – | – | – | IC50 [12]: 95 nM; Ki [13]: > 1000 nM; inhibition [25]: 5 to 10%; Ki [15]: > 1000 nM; EC50 [26]: 300 nM; Ki [16]: > 1000 nM; Emax [27]: 34%; Emax [17]: 5 to 10% |
| Cc1ccn(-c2ccc(C(=O)N3Cc4cnn(C)c4Nc4ccccc43)c(Cl)c2)n1 | – | – | < 10% | – | – | – | 8.4 nM | 0.59 | 0.93 | – |
| O=C(c1ccc(-c2cccnc2)cc1)N1CCCCc2ccccc21 | 67 nM | 150 nM | < 10% | 233 nM | < 10% | 227 nM | – | – | – | Kinact [2]: 78 nM; Kinact [8]: 51 nM |
